{"source": "patent US20190230969A1", "about": "“COMPOSITION OF PURIFIED SOLUBLE MANNANS FOR DIETARY SUPPLEMENTS AND METHODS OF USE THEREOF” (priority 2010, published 2019)", "origin": "cited, not measured here", "key": {"patients": {"system": "patients", "settings": "in vivo"}, "[1]": {"system": "normal and castrated rats", "settings": "10 mg/kg subcutaneously biweekly, 4 weeks"}}}
{"smiles": "C[C@H]1O[C@H](O[C@H]2[C@H](O)[C@@H](O)[C@@H](O[C@H]3[C@H](O)[C@@H](O)C(O)O[C@@H]3CO)O[C@@H]2CO)[C@H](O)[C@@H](O)[C@@H]1N[C@H]1C=C(CO)[C@@H](O)[C@H](O)[C@H]1O", "note": "(some centres unmarked) [acarbose]", "values": [{"measurement": "gastrointestinal disturbances (flatulence, abdominal distension, borborygmus, diarrhea)", "setting": "patients", "value": "High incidence of gastrointestinal disturbances"}]}
{"smiles": "C[C@]12CC[C@H]3[C@@H](CCC4=CC(=O)CC[C@@]43C)[C@@H]1CC[C@@H]2O", "note": "[testosterone]", "values": [{"measurement": "effect on BUN and testosterone levels", "setting": "[1]", "value": "increases"}]}
